Measured values: PMC7649969, “Pyrazolyl-pyrimidones inhibit the function of human solute carrier protein SLC11A2 (hDMT1) by metal chelation” (RSC Medicinal Chemistry, 2020)
Entries after “also recorded” stand apart in the source; their conditions may differ.

Experiments:
[1] = target: T1, hDMT1 (Homo sapiens, UniProt P49281); assay: two-electrode voltage-clamp electrophysiology of Fe2+ evoked currents in hDMT1-injected Xenopus oocytes; format: cell-based; conditions: Fe2+ 20 μM
T1 sequence (P49281 1-568): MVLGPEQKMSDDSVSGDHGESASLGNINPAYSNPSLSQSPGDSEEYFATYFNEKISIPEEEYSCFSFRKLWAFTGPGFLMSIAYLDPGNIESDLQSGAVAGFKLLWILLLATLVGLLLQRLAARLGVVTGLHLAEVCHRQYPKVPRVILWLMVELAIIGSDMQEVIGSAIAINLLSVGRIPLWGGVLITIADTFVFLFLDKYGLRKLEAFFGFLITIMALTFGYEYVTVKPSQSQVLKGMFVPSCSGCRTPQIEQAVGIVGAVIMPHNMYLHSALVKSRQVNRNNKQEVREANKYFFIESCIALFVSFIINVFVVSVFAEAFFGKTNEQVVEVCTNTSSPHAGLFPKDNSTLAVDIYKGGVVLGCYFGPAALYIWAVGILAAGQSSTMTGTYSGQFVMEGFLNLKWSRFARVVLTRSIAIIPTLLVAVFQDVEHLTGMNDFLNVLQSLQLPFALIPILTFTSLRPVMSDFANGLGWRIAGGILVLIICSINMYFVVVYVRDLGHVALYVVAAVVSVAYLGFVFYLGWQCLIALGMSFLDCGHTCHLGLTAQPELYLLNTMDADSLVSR
Method: Fig. 3 Characterization of Fe^2+ transport inhibition by 1 and 13 in X. laevis oocytes (collected from frogs under license number BE60/18 conceded by the Veterinärdienst des Kantons BE, Sekretariat Tierversuche). (a) Upper panel: Average ^55Fe^2+-uptake (20 μM) by hDMT1-expressing and non-injected oocytes in the absence and the presence of the indicated compounds (10 μM). Data was normalized to ^55Fe^2+-uptake (pmol min^–1) in the absence of compounds represented as mean ± SD (16–29 oocytes). Lower panel: Net uptake of ^55Fe^2+ (20 μM) by hDMT1 in the absence and the presence of the indicated compounds (10 μM). For each batch of oocytes, uptake values were corrected for unspecific iron uptake in non-injected oocytes. Data were normalized to the mean iron uptake by hDMT1 WT (pmol min^–1) and represented as mean ± SD (14–34 oocytes). (b and c) Electrophysiology. […] For each trace, recorded currents were corrected for the background currents observed without substrate. (b) Representative traces recorded with hDMT1 injected oocytes (upper panel) and non-injected oocytes (lower panel). […] Statistical differences were assessed using T-test or Mann–Whitney U test (Fe^2+-uptake by hDMT1 WT vs. non-injected oocytes or vs. compound); p > 0.05 = ns; p < 0.001 = ***.
250 µM non-radioactive Fe2+ and 100 µM Ascorbic acid. Next, oocytes were solubilized with SDS 10% and 55Fe2+ content was determined by scintillation counting. To determine the total activity of the hDMT1-expressing oocytes, uptake of 55Fe2+ was determined also in the absence of any compound. […]
Electrophysiology methods. […] Then, the membrane voltage was held at -50 mV (Vh), and the current (nA) required to keep Vh constant was recorded along the experiments. These currents were measured with an OC-725 amplifier (Warner Instruments), low-pass filtered at 500 Hz, digitized at 5 kHz with a Digidata 1440 data acquisition system and captured using pClamp 10 software (Axon Instruments). […]

[2] = calcein quenching (competition) assay to detect Fe2+ chelation; conditions: pH 5.5, 2 μM Fe2+, 1 μM calcein
[3] = isothermal titration calorimetry with Cd2+; format: binding; conditions: pH 7.4, 25 °C, read-out: apparent dissociation constant KD
[4] = solubility noted at HPLC purity determination; format: physicochemical
Method: Table S3: Purity of the final compounds.
Compound Retention time Purity [%] HPLC
aMethod A: in 2.2 min from 100 % A to 10 0% D, then staying at 100 % D. Method B: in 7.5 min from 10 0% A to 100 % D,

## N=C(N)SCc1cccc2c1oc1c(CSC(=N)N)cccc12 [Compound 1, reference compound]
[1]; currents at -70 mV, dose-response 0.01-10 μM, read-out: IC50 of inhibition of Fe2+ evoked currents
  IC50: 0.14 µM

## Cc1cc(=O)[nH]c(-n2nc3c(c2C)CCCC3)n1 [Compound 13]
[1]; compound up to 10 μM
  effect on hDMT1-induced currents: no measurable effect on the recorded currents; also recorded: did not modulate hDMT1-induced currents
[1]; currents at -70 mV, dose-response 0.01-10 μM
  IC50 of inhibition of Fe2+ evoked currents: did not fit to the equation
[2]
  iron chelation in calcein competition assay: significant level of iron chelation
[3]
  Kd: 6.4 µM

## Cc1nn(-c2ccccn2)c(O)c1C(=O)Nc1cccc(C(F)(F)F)c1 [Compound 3, reference compound]
[4]
  solubility in water and acetonitrile: not soluble in water and acetonitrile
